Results taken from patent US7494669B2, “Delivery of physiological agents with in-situ gels comprising anionic polysaccharides” (priority 2001, dated 2009).
Like-named read-outs stand apart in the source and are kept apart here.

Key:
[1] = Gel frontal migration assay with serum; format: physicochemical; details: 3 mg/ml pectin with 0.0039% or 0.0078% calcium chloride on normal calf serum
Excerpt: Body fluids such as blood, lacrimal fluid, lung fluid and nasal secretions contain calcium ions ([…] in blood, for example). Since Aloe pectin forms calcium gel, the role of calcium in the in-situ gelation of Aloe pectin was examined using an in vitro gelling assay with animal serum that simulates in-situ gel formation. This in vitro assay is described as a gel frontal migration assay. Animal serum was placed at the bottom of a glass tube and the Aloe pectin solution was layered on top of the serum (the pectin solution may also be placed at the bottom of the tube dependent on the density of the test solution in relation to the pectin solution). Tissue culture grade normal calf serum was used. […]
Gel formation was immediate at the contact line (interface of the solutions) and the gel phase or gel front gradually extended upward in the pectin solution over time. […] The thickness of the gel formed at the interface can be measured over time (such measurements are referred to as “gel length” hereinbelow).
The gel frontal migration assay described above was used. […] After 18 hrs at room temperature, the length of gels formed (i.e. gel thickness) was measured. […]
The gel frontal migration assay described above was used. […] The length of gels formed was measured 18 hrs later. […]

[2] = Gelation of HMW Aloe pectin solution on mixing with divalent cation salts; format: physicochemical; set-up: key: + indicates whole gel formation; ± partial gel formation; − no gel formation and solution remains clear and homogenous
Description: A 0.6% (w/v) HMW Aloe pectin solution in water was mixed with calcium chloride dihydrate solutions at various concentrations, at an 1:1 ratio (1 ml to 1 ml) to achieve a final polymer concentration of 0.3% (w/v) and a final calcium chloride dihydrate concentration from 0.0019-0.5% (w/v). The mixtures were immediately vortexed together, then the tubes were kept at room temperature and observed over time.

[3] = test system: cells surrounding the gel; test: Local delivery of bFGF by Aloe pectin in-situ gel; format: in vivo, mice
Excerpt: For growth factors to exert local effect on tissues surrounding the administration site, they need to be delivered in a matrix to allow them to be released in a slow or sustained manner. A delivery in saline or buffer alone is not effective in this regard. In this example, a growth factor (bFGF) was used. bFGF (basic fibroblast growth factor or FGF-2) is a growth factor known to stimulate fibroblast proliferation and angiogenesis or blood vessel formation. It was mixed with Aloe pectin (0.5%, w/v) in physiological saline at a concentration of 1-10 μg/ml and then injected subcutaneously into the lower left or right side of abdominal region of mice. One side received the control (pectin alone), and the other side received the bFGF-containing preparation. The in-situ gels from two mice were harvested along with skin at days 5-10 and subjected to fixation in formalin, sectioning, and H&E staining. Two identical areas, at either end of the gel, vertically between the gel surface and the skin muscle layer and horizontally 510 μm inward from the lateral end of the gel were selected, and the cells in these two selected areas from each gel were numerated using the NIH image software.

[4] = 0.3% (w/v) HMW Aloe pectin, salt 0 % w/v final
[5] = 0.3% (w/v) HMW Aloe pectin, salt 0.0019 % w/v final
[6] = 0.3% (w/v) HMW Aloe pectin, salt 0.0039 % w/v final
[7] = 0.3% (w/v) HMW Aloe pectin, salt 0.0156 % w/v final
[8] = 0.3% (w/v) HMW Aloe pectin, salt 0.0313 % w/v final
[9] = 0.3% (w/v) HMW Aloe pectin, salt 0.0625 % w/v final
[10] = 0.3% (w/v) HMW Aloe pectin, salt 0.125 % w/v final
[11] = 0.3% (w/v) HMW Aloe pectin, salt 0.25 % w/v final
[12] = 0.3% (w/v) HMW Aloe pectin, salt 0.5 % w/v final

Compound	Gel formation versus control without added calcium chloride [1]	Gel formation on mixing with HMW Aloe pectin [2]	Gel formation on mixing with HMW Aloe pectin [2, 4]	Gel formation on mixing with HMW Aloe pectin [2, 5]	Gel formation on mixing with HMW Aloe pectin [2, 6]	Gel formation on mixing with HMW Aloe pectin [2, 7]	Gel formation on mixing with HMW Aloe pectin [2, 8]	Gel formation on mixing with HMW Aloe pectin [2, 9]	Gel formation on mixing with HMW Aloe pectin [2, 10]	Gel formation on mixing with HMW Aloe pectin [2, 11]	Gel formation on mixing with HMW Aloe pectin [2, 12]	Gel formation on mixing with HMW Aloe pectin ([2]; 0.3% (w/v) HMW Aloe pectin, salt 0.0078 % w/v final)	Blood vessel formation surrounding the gel ([3]; bFGF 10 μg/ml)	Cell number in bFGF-treated relative to the control (pectin alone) ([3]; bFGF 1-10 μg/ml in 0.5% Aloe pectin, subcutaneous, days 5-10)
O.O.[Ca+2].[Cl-].[Cl-] [CaCl2•2H2O, calcium chloride dihydrate]	gel formation increased	−	−	−	−	±	+	+	+	+	+			
[Cl-].[Cl-].[Zn+2] [ZnCl2, zinc chloride]			−	−	−	±	+	+	+	+	+	−		
bFGF: basic fibroblast growth factor (FGF-2), delivered in 0.5% Aloe pectin in physiological saline													increase in blood vessel formation	more than 2 times
